From patent US11932595B2, “VDR-silent vitamin D derivative as inhibitors of SREBP and pharmaceutical use thereof” (KYOTO UNIVERSITY, priority 2020, dated 2024)

Assays:
[1] = Short-term in vivo model: serum calcium levels; parameters: species or system mice; details: 10 mg/kg intraperitoneally, after 4 days, n=3, FIG. 5D
Experimental: To quickly and simultaneously examine their SREBP inhibitory activity and VDR-derived calcemic activity in vivo, a short-term in vivo screening system of mice was established. With reference to the previous report (Horton, J. D. et al. Proc. Natl. Acad. Sci. U.S.A. 1998, 95, 5987-5992.), mice were fasted for 48 hours then refed a special diet (low fat, high carbohydrate diet, lacking in vitamin D) for 48 hours before sacrifice.
(§1) C57BL/6 and oh/oh mice were purchased from CLEA Japan and Charles River Japan, Inc., respectively. Animal experiments were carried out at the University of Tokyo and Charles River Laboratories. Low fat, high carbohydrate diet, lacking vitamin D was custom made by Research Diets, Inc. Compounds disclosed herein and 25(OH)D3 were dissolved in ethanol/Tween 20 (9:1) to obtain stock solution and then diluted 10-fold with PBS immediately before administration to mice.
10 mg/kg compounds or vehicle control were administered intraperitoneally once every 24 hours during the fasting and refeeding.
(§2) Following sacrifice, mouse livers were fixed in 10% neutral-buffered formalin, embedded in paraffin, sectioned, and stained with H&E. Hepatic lipids were extracted with chloroform/methanol (2:1 v/v), and TG and cholesterol contents were measured with Triglyceride Reagent Set (Pointe Scientific) and Cholesterol E (Wako), respectively. Serum levels of ALT, TG, glucose, cholesterol, and calcium were measured in SRL Inc. (Tokyo). All experiments were approved by the Ethics Committee for Animal Experimentation of the University of Tokyo and Charles River Laboratories Japan, and were conducted in accordance with the Guidelines for the Care and Use of Laboratory Animals.
Serum calcium levels in the mice treated with vehicle, compounds, or 25(OH)D3 were determined (means±SEM, n=3 per group), *p<0.05 (FIG. 5D).

ob/ob mice = test: Long-term in vivo model of fatty liver in ob/ob mice
Experimental: as §1, §2
Six-week-old ob/ob mice were treated with 10 mg/kg KK-052, 10 mg/kg 25(OH)D3, or vehicle control 5 times per week for 4 weeks (FIG. 7A).
Body weights of ob/ob mice were measured and data are given as means±SEM (25(OH)D3, n=5; others, n=8), *p<0.05 (FIG. 7B).
Hepatic TG and cholesterol contents were measured in KK-052- or vehicle-treated ob/ob mice (means±SEM), *p<0.05 (FIG. 7D).
Serum levels of ALT, TG, total cholesterol, glucose, and calcium were measured in KK-052- or vehicle-treated ob/ob mice (means±SEM), *p<0.05 (FIG. 7E).

[2] = 10 mg/kg 5 times per week for 4 weeks
[3] = ob/ob mice, versus vehicle, FIG. 7D

Row | Structure (SMILES) | serum calcium levels [1] | general condition of treated ob/ob mice (ob/ob mice; [2]) | weight gain (ob/ob mice; ob/ob mice, 10 mg/kg 5 times per week for 4 weeks, FIG. 7B) | liver steatosis (H&E histology) (ob/ob mice; ob/ob mice, 10 mg/kg, 4 weeks, FIG. 7C) | serum calcium levels versus vehicle-treated group (ob/ob mice; ob/ob mice, 10 mg/kg, 4 weeks, FIG. 7E) | serum level of TG (ob/ob mice; ob/ob mice, FIG. 7E) | serum level of alanine aminotransferase (ALT) (ob/ob mice; ob/ob mice, FIG. 7E) | serum level of glucose (ob/ob mice; ob/ob mice, FIG. 7E) | hepatic cholesterol content (ob/ob mice; [3]) | hepatic triglyceride (TG) content (ob/ob mice; [3])
1 | C=C1CC[C@H](O)C/C1=C/C=C1\CCC[C@]2(C)[C@@H]([C@H](C)CCCC(C)(C)O)CC[C@@H]12 [25(OH)D3, 25-hydroxyvitamin D3, reference compound] | markedly increased | became sick due to hypercalcemia and euthanized at 1 week |  |  |  |  |  |  |  | 
2 | C[C@H](CCC(F)(F)C(C)(C)O)[C@H]1CC[C@H]2/C(=C/Cn3nnnc3-c3ccccc3)CCC[C@]12C [Compound 50, (R)-3,3-Difluoro-2-methyl-6-{(1R,3aS,7aR,E)-7a-methyl-4-[2-(5-phenyl-1H-tetrazol-1-yl)ethylidene]octahydro-1H-inden-1-yl}heptan-2-ol] | no detectable increase | appeared healthy until the end of the experiments | slightly but significantly decreased | attenuated | no detectable difference | significantly decreased | significantly decreased | significantly decreased | significantly decreased | significantly decreased
